Measured values reported in PubChem BioAssay AID256 (DTP/NCI, 2004).
Values joined by “and” are separate entries in the source; they are usually repeats but may differ in a detail not shown here. Identical values can stand only once. Inconclusive results and toxic doses are left out. The calls were made as follows: active = survival T/C of 150% or more; inactive = T/C below 125% in these data.

System: CD2F1 mice, L1210 leukemia ip, survival T/C
Test: NCI In Vivo Anticancer Drug Screen. Data for tumor model L1210 Leukemia (intraperitoneal) in CD2F1 (CDF1) mice
Details: endpoint: mean survival time, higher = longer survival
Outline: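 Read-out first: treated-group measurement over vehicle-control measurement, expressed as a ratio. Animals bore a transplanted tumor line and were dosed with compound or vehicle.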

[1] = dose: 25.0 mg/kg/injection, schedule: Q01DX009 (ip), vehicle: saline with Tween-80
[2] = dose: 50.0 mg/kg/injection, schedule: Q01DX009 (ip), vehicle: saline with Tween-80
[3] = dose: 100.0 mg/kg/injection, schedule: Q04DX003 (ip), vehicle: saline with Tween-80
[4] = dose: 100.0 mg/kg/injection, schedule: Q04DX002 (ip), vehicle: saline with Tween-80
[5] = dose: 200.0 mg/kg/injection, schedule: Q01DX009 (ip), vehicle: saline with Tween-80
[6] = dose: 200.0 mg/kg/injection, schedule: Q04DX002 (ip), vehicle: saline with Tween-80
[7] = dose: 400.0 mg/kg/injection, schedule: Q01DX009 (ip), vehicle: saline with Tween-80
[8] = dose: 400.0 mg/kg/injection, schedule: Q04DX002 (ip), vehicle: saline with Tween-80
[9] = dose: 100.0 mg/kg/injection, schedule: Q01DX009 (ip), vehicle: saline with Tween-80
[10] = dose: 200.0 mg/kg/injection, schedule: Q04DX003 (ip), vehicle: saline with Tween-80
[11] = dose: 400.0 mg/kg/injection, schedule: Q04DX003 (ip), vehicle: saline with Tween-80
[12] = dose: 100.0 mg/kg/injection, schedule: Q01DX001 (ip), vehicle: saline with Tween-80
[13] = dose: 200.0 mg/kg/injection, schedule: Q01DX001 (ip), vehicle: saline with Tween-80
[14] = dose: 12.5 mg/kg/injection, schedule: Q01DX009 (ip), vehicle: water
[15] = dose: 25.0 mg/kg/injection, schedule: Q01DX009 (ip), vehicle: water
[16] = dose: 50.0 mg/kg/injection, schedule: Q01DX009 (ip), vehicle: water
[17] = dose: 100.0 mg/kg/injection, schedule: Q01DX009 (ip), vehicle: water
[18] = dose: 400.0 mg/kg/injection, schedule: Q01DX001 (ip), vehicle: saline with Tween-80

Measured: T/C

Nc1ncnc2c1ncn2CCCl
inactive: [1] 102 % of control | dose: 25.0 mg/kg/injection, schedule: Q04DX003 (ip), vehicle: saline with Tween-80 103 % of control | [2] 101 % of control | dose: 50.0 mg/kg/injection, schedule: Q04DX003 (ip), vehicle: saline with Tween-80 96 % of control | [3] 97 % of control

Cc1c(C)c(C)c(CN2CCC(C)CC2)c(C)c1C
inactive: [1] 90 % of control | [2] 91 % of control | [4] 98 % of control | [5] 90 % of control | [6] 94 % of control | [7] 86 % of control | [8] 94 % of control

Cc1cccc(C)c1OC(=O)Cl
inactive: dose: 5.0 mg/kg/injection, schedule: Q01DX001 (ip), vehicle: saline 98 % of control | dose: 10.0 mg/kg/injection, schedule: Q01DX001 (ip), vehicle: saline 97 % of control | dose: 20.0 mg/kg/injection, schedule: Q01DX001 (ip), vehicle: saline 97 % of control | dose: 40.0 mg/kg/injection, schedule: Q01DX001 (ip), vehicle: saline 97 % of control

CCOC(=O)C(C#N)(CCC#N)CCC#N
inactive: [9] 94 % of control | [3] 100 % of control | [5] 98 % of control | [10] 102 % of control | [7] 94 % of control | [11] 100 % of control

CC1(C(=O)c2ccccc2)CC2C=CC1C2 (stereo not given)
inactive: dose: 50.0 mg/kg/injection, schedule: Q04DX002 (ip), vehicle: saline with Tween-80 94 % of control | [4] 108 % of control | [6] 94 % of control

CC1Oc2ccccc2OC1C(=O)NN (stereo not given)
inactive: [9] 92 % of control | [5] 94 % of control | [7] 94 % of control

O=C(O)/C=C/c1ccc([N+](=O)[O-])o1
inactive: dose: 25.0 mg/kg/injection, schedule: Q01DX001 (ip), vehicle: saline with Tween-80 96 % of control | dose: 50.0 mg/kg/injection, schedule: Q01DX001 (ip), vehicle: saline with Tween-80 89 % of control | [12] 115 % of control and 98 % of control | [13] 94 % of control

O=S(=O)(Nc1ccc2c3c(cccc13)C=C2)c1ccccc1
inactive: [3] 98 % of control | [10] 98 % of control | [11] 98 % of control

COC(=O)C1C2CC(C3OC23)C1C(=O)OC (stereo not given)
inactive: [9] 100 % of control | [3] 97 % of control | [5] 115 % of control | [10] 89 % of control | [7] 102 % of control | [11] 103 % of control

COc1cc2c(c(OC)c1OC)-c1ccc(SC)c(=O)cc1[C@@H](NC1OC(COC(C)=O)C(OC(C)=O)C(OC(C)=O)C1OC(C)=O)CC2 (stereo not given in full)
inactive: dose: 1.5 mg/kg/injection, schedule: Q01DX009 (ip), vehicle: other 97 % of control | dose: 3.0 mg/kg/injection, schedule: Q01DX009 (ip), vehicle: other 97 % of control | dose: 6.0 mg/kg/injection, schedule: Q01DX009 (ip), vehicle: other 97 % of control | dose: 12.0 mg/kg/injection, schedule: Q01DX009 (ip), vehicle: other 96 % of control | dose: 24.0 mg/kg/injection, schedule: Q01DX009 (ip), vehicle: other 96 % of control

CC1OC(n2ncc(=O)[nH]c2=O)C(O)C(O)C1O (stereo not given)
inactive: dose: 12.5 mg/kg/injection, schedule: Q01DX005 (ip), vehicle: distilled water + Tween-80 105 % of control | dose: 25.0 mg/kg/injection, schedule: Q01DX005 (ip), vehicle: distilled water + Tween-80 100 % of control | dose: 50.0 mg/kg/injection, schedule: Q01DX005 (ip), vehicle: distilled water + Tween-80 103 % of control | dose: 100.0 mg/kg/injection, schedule: Q01DX005 (ip), vehicle: distilled water + Tween-80 103 % of control | dose: 200.0 mg/kg/injection, schedule: Q01DX005 (ip), vehicle: distilled water + Tween-80 107 % of control

O=C(O)C1C2c3cccc4cccc(c34)C12 (stereo not given)
inactive: [2] 101 % of control | [9] 97 % of control | [3] 101 % of control | [5] 109 % of control | [10] 101 % of control

COc1ccc(/C(C)=N/N=C\c2cc(OC)c(OC)c(OC)c2)cc1
inactive: [9] 91 % of control | [5] 89 % of control | [7] 88 % of control

COCC1OC2OC3C(COC)OC(OC4C(COC)OC(OC5C(COC)OC(OC6C(COC)OC(OC7C(COC)OC(OC8C(COC)OC(OC1C(O)C2O)C(O)C8O)C(O)C7O)C(O)C6O)C(O)C5O)C(O)C4O)C(O)C3O (stereo not given) (tested in a mixture with another compound)
inactive: dose: 25.0 mg/kg/injection, schedule: Q01DX009 (ip), vehicle: Klucel (hydroxypropylcellulose) (HPC) 98 % of control | dose: 50.0 mg/kg/injection, schedule: Q01DX009 (ip), vehicle: Klucel (hydroxypropylcellulose) (HPC) 98 % of control | dose: 100.0 mg/kg/injection, schedule: Q01DX009 (ip), vehicle: Klucel (hydroxypropylcellulose) (HPC) 94 % of control | dose: 200.0 mg/kg/injection, schedule: Q01DX009 (ip), vehicle: Klucel (hydroxypropylcellulose) (HPC) 96 % of control | dose: 400.0 mg/kg/injection, schedule: Q01DX009 (ip), vehicle: Klucel (hydroxypropylcellulose) (HPC) 93 % of control

O=C(Nc1cccc(O)c1)C1CC1
inactive: [12] 105 % of control | [13] 94 % of control

Cc1ccccc1Sc1cc2ccccc2c2ccccc12
inactive: dose: 100.0 mg/kg/injection, schedule: Q04DX003 (ip), vehicle: saline 97 % of control | dose: 200.0 mg/kg/injection, schedule: Q04DX003 (ip), vehicle: saline 100 % of control | dose: 400.0 mg/kg/injection, schedule: Q04DX003 (ip), vehicle: saline 100 % of control

CC(=O)C1CCC2C3CCC4=CC(=O)CC4(C)C3CCC12C (stereo not given)
inactive: [3] 113 % of control | [10] 124 % of control

C[n+]1ccccc1/C=C/c1ccccn1
inactive: dose: 5.3 mg/kg/injection, schedule: Q01DX009 (ip), vehicle: saline with Tween-80 97 % of control | dose: 6.25 mg/kg/injection, schedule: Q04DX003 (ip), vehicle: saline 95 % of control | dose: 8.0 mg/kg/injection, schedule: Q01DX009 (ip), vehicle: saline with Tween-80 100 % of control | dose: 12.0 mg/kg/injection, schedule: Q01DX009 (ip), vehicle: saline with Tween-80 100 % of control | dose: 12.5 mg/kg/injection, schedule: Q04DX003 (ip), vehicle: saline 98 % of control | dose: 18.0 mg/kg/injection, schedule: Q01DX009 (ip), vehicle: saline with Tween-80 92 % of control | dose: 25.0 mg/kg/injection, schedule: Q04DX003 (ip), vehicle: saline 92 % of control

CCc1ccc(NC(=O)/C=C/c2ccccc2)cc1
inactive: [4] 93 % of control | [6] 89 % of control | [8] 104 % of control

CC(C)NCCCC(=O)O
inactive: [14] 96 % of control | [15] 98 % of control | [16] 90 % of control | [17] 98 % of control | dose: 200.0 mg/kg/injection, schedule: Q01DX009 (ip), vehicle: water 95 % of control

CN1CCCN(C)C1c1cc(Br)ccc1O
inactive: dose: 6.25 mg/kg/injection, schedule: Q01DX009 (ip), vehicle: saline sonified 100 % of control | dose: 12.5 mg/kg/injection, schedule: Q01DX009 (ip), vehicle: saline sonified 104 % of control | dose: 25.0 mg/kg/injection, schedule: Q01DX009 (ip), vehicle: saline sonified 94 % of control | [3] 101 % of control | [10] 95 % of control | [11] 95 % of control

O=CNO
inactive: [12] 108 % of control | [13] 104 % of control | [18] 104 % of control

NC(=O)N/N=C/COC(=O)c1ccccc1
inactive: [12] 93 % of control | [13] 91 % of control | [18] 98 % of control

COC1OC(COS(C)(=O)=O)C(OS(C)(=O)=O)C(OS(C)(=O)=O)C1OS(C)(=O)=O (stereo not given)
inactive: [9] 95 % of control | [5] 101 % of control | [7] 94 % of control

CS(=O)(=O)OCC1NC(=O)C(COS(C)(=O)=O)NC1=O (stereo not given)
inactive: dose: 3.13 mg/kg/injection, schedule: Q01DX009 (ip), vehicle: water 103 % of control | dose: 6.25 mg/kg/injection, schedule: Q01DX009 (ip), vehicle: water 101 % of control | [14] 105 % of control | [15] 106 % of control | [16] 101 % of control | [17] 100 % of control

O=C(COc1cc(Cl)c(Cl)cc1Cl)OCCOc1cc(Cl)c(Cl)cc1Cl
inactive: dose: 15.0 mg/kg/injection, schedule: Q04DX003 (ip), vehicle: saline 93 % of control | dose: 30.0 mg/kg/injection, schedule: Q04DX003 (ip), vehicle: saline 89 % of control | dose: 200.0 mg/kg/injection, schedule: Q01DX001 (ip), vehicle: saline 86 % of control
